# Measurements published in ChEMBL document CHEMBL1201862, “PubChem BioAssay data set” (2004).
#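 Exposure lasted 48 hours, with cells grown in 96-well plates and compounds tested at five concentrations. GI50 is the concentration that inhibits growth by half.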 The source made the active and inactive calls. No stated cut-off is given here; in the data, active = GI50 up to about 1.1 µM and inactive = higher.
# Legend:
# Test in all cases: growth of human tumour cells (NCI), 48 h
# NCI-H23 = system: NCI-H23
# SN12C = system: SN12C
# SK-OV-3 = system: SK-OV-3
# LOX IMVI = system: LOX IMVI
# NCI-H460 = system: NCI-H460
# OVCAR-4 = system: OVCAR-4
# U-251 = system: U-251
# DMS-114 = system: DMS-114
# HCT-116 = system: HCT-116
# 786-0 = system: 786-0
# SNB-75 = system: SNB-75
# UO-31 = system: UO-31
# SF-295 = system: SF-295
# Malme-3M = system: Malme-3M
# MOLT-4 = system: MOLT-4
# IGROV-1 = system: IGROV-1
# SF-539 = system: SF-539
# HT-29 = system: HT-29
# CAKI-1 = system: CAKI-1
# RPMI-8226 = system: RPMI-8226
# A549 = system: A549
# UACC-257 = system: UACC-257
# DLD-1 = system: DLD-1
# NCI-H226 = system: NCI-H226
# LXFL 529 = system: LXFL 529
# RXF 631 = system: RXF 631
# HCT-15 = system: HCT-15
# HCC 2998 = system: HCC 2998
# DMS-273 = system: DMS-273
# OVCAR-5 = system: OVCAR-5
# HOP-92 = system: HOP-92
# M14 = system: M14
# ACHN = system: ACHN
# K562 = system: K562
# OVCAR-8 = system: OVCAR-8
# HL-60 = system: HL-60
# UACC-62 = system: UACC-62
# OVCAR-3 = system: OVCAR-3
# HOP-62 = system: HOP-62
# A498 = system: A498
# SR = system: SR
# EKVX = system: EKVX
# KM-20L2 = system: KM-20L2
# XF498 = system: XF498
# SK-MEL-28 = system: SK-MEL-28
# NCI-H522 = system: NCI-H522
# KM12 = system: KM12
# SF-268 = system: SF-268
# SK-MEL-5 = system: SK-MEL-5
# HOP-18 = system: HOP-18
# SW-620 = system: SW-620
# CCRF-CEM = system: CCRF-CEM
# COLO 205 = system: COLO 205
# SNB-19 = system: SNB-19
# TK-10 = system: TK-10
# SK-MEL-2 = system: SK-MEL-2
# SNB-78 = system: SNB-78
compound,measurement,setting,value
CN(C)CCN1N=Nc2cccc3cccc1c23,GI50,NCI-H23,> 100 µM (inactive)
same,GI50,SN12C,> 55.5 µM (inactive)
same,GI50,SK-OV-3,> 100 µM (inactive)
same,GI50,LOX IMVI,83.8 µM (inactive)
same,GI50,NCI-H460,37.5 µM (inactive)
same,GI50,OVCAR-4,72.9 µM (inactive)
same,GI50,U-251,> 100 µM (inactive)
same,GI50,DMS-114,> 74.8 µM (inactive)
same,GI50,HCT-116,57.1 µM (inactive)
same,GI50,786-0,> 100 µM (inactive)
same,GI50,SNB-75,> 100 µM (inactive)
same,GI50,UO-31,> 100 µM (inactive)
same,GI50,SF-295,> 100 µM (inactive)
same,GI50,Malme-3M,> 78.3 µM (inactive)
same,GI50,MOLT-4,35.2 µM (inactive)
same,GI50,IGROV-1,> 100 µM (inactive)
same,GI50,SF-539,> 100 µM (inactive)
same,GI50,HT-29,45.6 µM (inactive)
same,GI50,CAKI-1,69.7 µM (inactive)
same,GI50,RPMI-8226,> 43.9 µM (inactive)
same,GI50,A549,> 100 µM (inactive)
same,GI50,UACC-257,> 100 µM (inactive)
same,GI50,DLD-1,> 80.7 µM (inactive)
same,GI50,NCI-H226,> 100 µM (inactive)
same,GI50,LXFL 529,> 87.3 µM (inactive)
same,GI50,RXF 631,> 100 µM (inactive)
same,GI50,HCT-15,> 61.9 µM
same,GI50,HCC 2998,> 100 µM (inactive)
same,GI50,DMS-273,24.5 µM (inactive)
same,GI50,OVCAR-5,> 100 µM (inactive)
same,GI50,HOP-92,> 100 µM (inactive)
same,GI50,M14,> 100 µM (inactive)
same,GI50,ACHN,61.1 µM (inactive)
same,GI50,K562,> 65.2 µM (inactive)
same,GI50,OVCAR-8,97.9 µM (inactive)
same,GI50,HL-60,> 46.8 µM (inactive)
same,GI50,UACC-62,> 100 µM (inactive)
same,GI50,OVCAR-3,> 100 µM (inactive)
same,GI50,HOP-62,> 100 µM (inactive)
same,GI50,A498,> 91.8 µM (inactive)
same,GI50,SR,15.7 µM (inactive)
same,GI50,EKVX,> 100 µM (inactive)
same,GI50,KM-20L2,> 61.4 µM (inactive)
same,GI50,XF498,> 89.5 µM (inactive)
same,GI50,SK-MEL-28,> 100 µM (inactive)
same,GI50,NCI-H522,54.2 µM (inactive)
same,GI50,KM12,> 100 µM (inactive)
same,GI50,SF-268,> 100 µM (inactive)
same,GI50,SK-MEL-5,> 88.7 µM (inactive)
same,GI50,HOP-18,> 100 µM (inactive)
same,GI50,SW-620,25.1 µM (inactive)
same,GI50,CCRF-CEM,> 47 µM (inactive)
same,GI50,COLO 205,68.4 µM (inactive)
same,GI50,SNB-19,> 100 µM (inactive)
same,GI50,TK-10,> 100 µM (inactive)
same,GI50,SK-MEL-2,> 100 µM (inactive)
Cc1cc(C)nc(NS(=O)(=O)c2ccc(NC(=O)c3cccc4c(=O)c5ccccc5[nH]c34)cc2)n1,GI50,NCI-H23,17 µM (inactive)
same,GI50,SN12C,15.9 µM (inactive)
same,GI50,SK-OV-3,0.18 µM (active)
same,GI50,LOX IMVI,15.2 µM (inactive)
same,GI50,NCI-H460,17 µM (inactive)
same,GI50,OVCAR-4,18.5 µM (inactive)
same,GI50,U-251,16.5 µM (inactive)
same,GI50,DMS-114,18.4 µM (inactive)
same,GI50,HCT-116,17 µM (inactive)
same,GI50,SNB-78,21.3 µM (inactive)
same,GI50,786-0,18.7 µM (inactive)
same,GI50,SNB-75,18.5 µM (inactive)
same,GI50,UO-31,22.2 µM (inactive)
same,GI50,SF-295,19.8 µM (inactive)
same,GI50,Malme-3M,17.9 µM (inactive)
same,GI50,MOLT-4,30.5 µM (inactive)
same,GI50,IGROV-1,26.1 µM (inactive)
same,GI50,SF-539,18.4 µM (inactive)
same,GI50,HT-29,21.3 µM (inactive)
same,GI50,CAKI-1,33 µM (inactive)
same,GI50,RPMI-8226,10.9 µM (inactive)
same,GI50,A549,22.7 µM (inactive)
same,GI50,UACC-257,17.9 µM (inactive)
same,GI50,DLD-1,20.7 µM (inactive)
same,GI50,NCI-H226,19.1 µM (inactive)
same,GI50,LXFL 529,14.3 µM (inactive)
same,GI50,RXF 631,60 µM (inactive)
same,GI50,HCT-15,19.7 µM
same,GI50,HCC 2998,16.7 µM (inactive)
same,GI50,DMS-273,22.1 µM (inactive)
same,GI50,OVCAR-5,> 10 µM (inactive)
same,GI50,HOP-92,20 µM (inactive)
same,GI50,M14,18.9 µM (inactive)
same,GI50,ACHN,21.6 µM (inactive)
same,GI50,K562,18.6 µM (inactive)
same,GI50,OVCAR-8,19.2 µM (inactive)
same,GI50,HL-60,16.6 µM (inactive)
same,GI50,UACC-62,20 µM (inactive)
same,GI50,OVCAR-3,19.5 µM (inactive)
same,GI50,HOP-62,20.1 µM (inactive)
same,GI50,A498,18.2 µM (inactive)
same,GI50,SR,24.8 µM (inactive)
same,GI50,EKVX,26.5 µM (inactive)
same,GI50,KM-20L2,19.5 µM (inactive)
same,GI50,XF498,13.5 µM (inactive)
same,GI50,SK-MEL-28,18.8 µM (inactive)
same,GI50,NCI-H522,13.1 µM (inactive)
same,GI50,KM12,17 µM (inactive)
same,GI50,SF-268,21.8 µM (inactive)
same,GI50,SK-MEL-5,11.7 µM (inactive)
same,GI50,HOP-18,18.5 µM (inactive)
same,GI50,SW-620,23.5 µM (inactive)
same,GI50,CCRF-CEM,13 µM (inactive)
same,GI50,COLO 205,18.3 µM (inactive)
same,GI50,SNB-19,27.2 µM (inactive)
same,GI50,TK-10,25.9 µM (inactive)
same,GI50,SK-MEL-2,> 10 µM (inactive)
CSc1ccc(-c2cn3ccsc3n2)c(O)c1,GI50,NCI-H23,48.3 µM (inactive)
same,GI50,SN12C,> 79.1 µM (inactive)
same,GI50,SK-OV-3,> 82.4 µM (inactive)
same,GI50,LOX IMVI,20 µM (inactive)
same,GI50,NCI-H460,13.6 µM (inactive)
same,GI50,OVCAR-4,> 49.4 µM (inactive)
same,GI50,U-251,46 µM (inactive)
same,GI50,DMS-114,26.1 µM (inactive)
same,GI50,HCT-116,30.3 µM (inactive)
same,GI50,SNB-78,42.3 µM (inactive)
same,GI50,786-0,20.7 µM (inactive)
same,GI50,SNB-75,35.6 µM (inactive)
same,GI50,UO-31,59.8 µM (inactive)
same,GI50,SF-295,39 µM (inactive)
same,GI50,Malme-3M,> 61.1 µM (inactive)
same,GI50,MOLT-4,30.5 µM (inactive)
same,GI50,IGROV-1,> 100 µM (inactive)
same,GI50,SF-539,32.7 µM (inactive)
same,GI50,HT-29,83.2 µM (inactive)
same,GI50,CAKI-1,> 100 µM (inactive)
same,GI50,RPMI-8226,13.8 µM (inactive)
same,GI50,A549,> 90.8 µM (inactive)
same,GI50,UACC-257,> 24.2 µM (inactive)
same,GI50,DLD-1,40.4 µM (inactive)
same,GI50,NCI-H226,> 100 µM (inactive)
same,GI50,LXFL 529,> 54.5 µM (inactive)
same,GI50,RXF 631,> 70.8 µM (inactive)
same,GI50,HCT-15,17.6 µM
same,GI50,HCC 2998,> 60 µM (inactive)
same,GI50,DMS-273,32.8 µM (inactive)
same,GI50,OVCAR-5,> 92.9 µM (inactive)
same,GI50,HOP-92,47.3 µM (inactive)
same,GI50,M14,> 59.6 µM (inactive)
same,GI50,ACHN,> 82.6 µM (inactive)
same,GI50,K562,26.4 µM (inactive)
same,GI50,OVCAR-8,> 89.9 µM (inactive)
same,GI50,HL-60,17 µM (inactive)
same,GI50,UACC-62,69.7 µM (inactive)
same,GI50,OVCAR-3,36.7 µM (inactive)
same,GI50,HOP-62,49.9 µM (inactive)
same,GI50,A498,> 86.3 µM (inactive)
same,GI50,SR,40.6 µM (inactive)
same,GI50,EKVX,> 81.3 µM (inactive)
same,GI50,KM-20L2,> 65.2 µM (inactive)
same,GI50,XF498,30.2 µM (inactive)
same,GI50,SK-MEL-28,> 100 µM (inactive)
same,GI50,NCI-H522,37.2 µM (inactive)
same,GI50,KM12,> 56.5 µM (inactive)
same,GI50,SF-268,36.7 µM (inactive)
same,GI50,SK-MEL-5,41 µM (inactive)
same,GI50,HOP-18,> 76.6 µM (inactive)
same,GI50,SW-620,36.1 µM (inactive)
same,GI50,CCRF-CEM,16.1 µM (inactive)
same,GI50,COLO 205,> 44.5 µM (inactive)
same,GI50,SNB-19,> 61.5 µM (inactive)
same,GI50,TK-10,61.8 µM (inactive)
same,GI50,SK-MEL-2,> 85.3 µM (inactive)
